In patent publication US11247990B1, “Bicyclic fused pyridine compounds as inhibitors of TAM kinases” (ARRAY BIOPHARMA INC., priority 2017, dated 2022):

Experiments:
Details in all cases: averaged IC50
[1] = target: His-tagged recombinant human MER cytoplasmic domain (Homo sapiens (Human), UniProt Q12866); assay: MER Enzyme Assay (LanthaScreen Eu Kinase Binding, TR-FRET)
How it was run: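 Percent of control, derived from ratiometric TR-FRET emission, was fitted to a 4-parameter logistic curve and IC50 taken at 50 POC. Binding was read after 60 min at 22 °C using Eu-based LanthaScreen technology and recombinant His-tagged MER cytoplasmic domain.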

[2] = target: GST-tagged recombinant human TYRO3 kinase domain (Homo sapiens (Human), UniProt Q06418); assay: TYRO3 Enzyme Assay (LanthaScreen Eu Kinase Binding, TR-FRET)
How it was run: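 LanthaScreen Eu binding (tracer displacement) format read by TR-FRET after 60 min at 22 °C. Emission ratio converted to percent of control; IC50 taken where a 4-parameter logistic fit crosses 50 POC.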

[3] = target: His-tagged recombinant human AXL cytoplasmic domain (Homo sapiens (Human), UniProt P30530); assay: AXL Enzyme Assay (LanthaScreen Eu Kinase Binding, TR-FRET)
How it was run: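 Compound displacement measured by TR-FRET after 60 min at 22 °C, using Eu-based LanthaScreen binding technology. Ratiometric emission converted to percent of control, fitted to a 4-parameter logistic curve, with IC50 at 50 POC.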

Sequence of His-tagged recombinant human AXL cytoplasmic domain (P30530 473-894): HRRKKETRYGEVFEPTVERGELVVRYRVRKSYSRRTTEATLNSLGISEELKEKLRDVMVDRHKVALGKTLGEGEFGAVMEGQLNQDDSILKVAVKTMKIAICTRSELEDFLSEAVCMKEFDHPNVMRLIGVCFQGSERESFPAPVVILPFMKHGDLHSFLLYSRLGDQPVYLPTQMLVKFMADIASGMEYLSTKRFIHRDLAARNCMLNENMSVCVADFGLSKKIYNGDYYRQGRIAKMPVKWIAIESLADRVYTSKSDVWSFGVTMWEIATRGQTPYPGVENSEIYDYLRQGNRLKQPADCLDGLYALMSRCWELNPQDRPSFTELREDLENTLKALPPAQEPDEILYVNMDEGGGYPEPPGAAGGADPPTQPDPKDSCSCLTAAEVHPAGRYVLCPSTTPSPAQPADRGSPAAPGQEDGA
Sequence of GST-tagged recombinant human TYRO3 kinase domain (Q06418 518-790): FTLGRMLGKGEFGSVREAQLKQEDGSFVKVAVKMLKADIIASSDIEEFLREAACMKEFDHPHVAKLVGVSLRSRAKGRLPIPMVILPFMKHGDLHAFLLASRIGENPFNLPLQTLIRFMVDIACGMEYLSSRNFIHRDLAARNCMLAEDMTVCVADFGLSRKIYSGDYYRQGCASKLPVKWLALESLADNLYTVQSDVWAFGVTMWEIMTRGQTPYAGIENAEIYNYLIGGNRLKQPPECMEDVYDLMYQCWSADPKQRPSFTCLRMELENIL
Sequence of His-tagged recombinant human MER cytoplasmic domain (Q12866 527-999): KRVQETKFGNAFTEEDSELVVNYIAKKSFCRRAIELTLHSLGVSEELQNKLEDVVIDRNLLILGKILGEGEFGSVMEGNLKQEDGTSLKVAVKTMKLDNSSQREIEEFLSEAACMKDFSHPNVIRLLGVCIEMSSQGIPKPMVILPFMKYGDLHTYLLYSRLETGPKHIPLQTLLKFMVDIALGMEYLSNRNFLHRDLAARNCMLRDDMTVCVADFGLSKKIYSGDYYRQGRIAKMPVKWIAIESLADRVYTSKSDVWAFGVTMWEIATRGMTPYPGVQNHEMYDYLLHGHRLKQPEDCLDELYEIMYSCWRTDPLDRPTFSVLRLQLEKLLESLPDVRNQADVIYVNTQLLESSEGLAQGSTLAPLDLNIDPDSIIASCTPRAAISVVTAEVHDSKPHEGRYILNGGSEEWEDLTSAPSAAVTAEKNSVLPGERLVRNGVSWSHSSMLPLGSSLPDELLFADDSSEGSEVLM

| Compound | IC50 [1] [nM] | IC50 [2] [nM] | IC50 [3] [nM] |
| --- | --- | --- | --- |
| CCNc1cc2c(cn1)c(N1CCOCC1)nn2[C@H]1CC[C@@H](Oc2nccc(C(F)(F)F)c2F)CC1 [Example 330, N-ethyl-1-((1s,4s)-4-((3-fluoro-4-(trifluoromethyl)pyridin-2-yl)oxy)cyclohexyl)-3-morpholino-1H-pyrazolo[4,3-c]pyridin-6-amine] | < 10 | 10 to 100 | < 10 |
| CCNc1cc2c(cn1)c(N1CCN(C)CC1)nn2[C@H]1CC[C@@H](Oc2nccc(C(F)(F)F)c2F)CC1 [Example 331, N-ethyl-1-((1s,4s)-4((3-fluoro-4-(trifluoromethyl)pyridin-2-yl)oxy)cyclohexyl)-3-(4-methylpiperazin-1-yl)-1H-pyrazolo[4,3-c]pyridin-6-amine] | < 10 | < 10 | < 10 |
| CCNc1cc2c(cn1)c(N1CCC(OC)CC1)nn2[C@H]1CC[C@@H](Oc2nccc(C(F)(F)F)c2F)CC1 [Example 333, N-ethyl-1-((1s,4s)-4((3-fluoro-4-(trifluoromethyl)pyridin-2-yl)oxy)cyclohexyl)-3-(4-methoxypiperidin-1-yl)-1H-pyrazolo[4,3-c]pyridin-6-amine] | < 10 | < 10 | < 10 |
| CCNc1cc2c(cn1)c(N1CC[C@H](N(C)C)C1)nn2[C@H]1CC[C@@H](Oc2nccc(C(F)(F)F)c2F)CC1 [Example 335, 3-((S)-3-(dimethylamino)pyrrolidin-1-yl)-N-ethyl-1-((1s,4R)-4-((3-fluoro-4-(trifluoromethyl)pyridin-2-yl)oxy)cyclohexyl)-1H-pyrazolo[4,3-c]pyridin-6-amine] | < 10 | 10 to 100 | < 10 |
| CCNc1cc2c(cn1)c(N1CC[C@H](O)C1)nn2[C@H]1CC[C@@H](Oc2nccc(C(F)(F)F)c2F)CC1 [Example 336, (S)-1-(6-(ethylamino)-1-((1s,4R)-4-((3-fluoro-4-(trifluoromethyl)pyridin-2-yl)oxy)cyclohexyl)-1H-pyrazolo[4,3-c]pyridin-3-yl)pyrrolidin-3-ol] | < 10 | 10 to 100 | < 10 |
| CCNc1cc2c(cn1)c(N1CCC[C@H](NC)C1)nn2[C@H]1CC[C@@H](Oc2nccc(C(F)(F)F)c2F)CC1 [Example 338, N-ethyl-1-((1s,4R)-4-((3-fluoro-4-(trifluoromethyl)pyridin-2-yl)oxy)cyclohexyl)-3-((S)-3-(methylamino)piperidin-1-yl)-1H-pyrazolo[4,3-c]pyridin-6-amine] | < 10 | 10 to 100 | < 10 |
| CCNc1cc2c(cn1)c(N1CC[C@@H](NC)C1)nn2[C@H]1CC[C@@H](Oc2nccc(C(F)(F)F)c2F)CC1 [Example 339, N-ethyl-1-((1s,4S)-4-((3-fluoro-4-(trifluoromethyl)pyridin-2-yl)oxy)cyclohexyl)-3-((R)-3-(methylamino)pyrrolidin-1-yl)-1H-pyrazolo[4,3-c]pyridin-6-amine] | < 10 | < 10 | < 10 |
| CCNc1cc2c(cn1)c(N1CC3COCC3C1)nn2[C@H]1CC[C@@H](Oc2nccc(C(F)(F)F)c2F)CC1 (stereo partly drawn) [Example 342, N-ethyl-1-((1s,4s)-4((3-fluoro-4-(trifluoromethyl)pyridin-2-yl)oxy)cyclohexyl)-3-(tetrahydro-1H-furo[3,4-c]pyrrol-5(3H)-yl)-1H-pyrazolo[4,3-c]pyridin-6-amine] | < 10 | 10 to 100 | < 10 |
| CCNc1cc2c(cn1)c(N1CCNCC1)nn2[C@H]1CC[C@@H](Oc2nccc(C(F)(F)F)c2F)CC1 [Example 343, N-ethyl-1-((1s,4s)-4((3-fluoro-4-(trifluoromethyl)pyridin-2-yl)oxy)cyclohexyl)-3-(piperazin-1-yl)-1H-pyrazolo[4,3-c]pyridin-6-amine] | < 10 | < 10 | < 10 |
| CCNc1cc2c(cn1)c(N1CCC(NC)CC1)nn2[C@H]1CC[C@@H](Oc2nccc(C(F)(F)F)c2F)CC1 [Example 344, N-ethyl-1-((1s,4s)-4((3-fluoro-4-(trifluoromethyl)pyridin-2-yl)oxy)cyclohexyl)-3-(4-(methylamino)piperidin-1-yl)-1H-pyrazolo[4,3-c]pyridin-6-amine] | < 10 | 10 to 100 | < 10 |
| CCNc1cc2c(cn1)c(N1CCC(N(C)C)CC1)nn2[C@H]1CC[C@@H](Oc2nccc(C(F)(F)F)c2F)CC1 [Example 345, 3-(4-(dimethylamino)piperidin-1-yl)-N-ethyl-1-((1s,4s)-4-((3-fluoro-4-(trifluoromethyl)pyridin-2-yl)oxy)cyclohexyl)-1H-pyrazolo[4,3-c]pyridin-6-amine] | < 10 | 10 to 100 | < 10 |
| CCNc1cc2c(cn1)c(-c1cnn(C)c1)nn2[C@H]1CC[C@@H](Oc2nccc(C)c2F)CC1 [Example 346, N-ethyl-1-((1s,4s)-4-((3-fluoro-4-methylpyridin-2-yl)oxy)cyclohexyl)-3-(1-methyl-1H-pyrazol-4-yl)-1H-pyrazolo[4,3-c]pyridin-6-amine] | < 10 | 10 to 100 | < 10 |
| CCNc1cc2c(cn1)c(-c1cnn(C)c1)nn2[C@H]1CC[C@@H](Oc2nccc(N(C)C)c2F)CC1 [Example 349, 1-((1s,4s)-4-((4-(dimethylamino)-3-fluoropyridin-2-yl)oxy)cyclohexyl)-N-ethyl-3-(1-methyl-1H-pyrazol-4-yl)-1H-pyrazolo[4,3-c]pyridin-6-amine] | < 10 | 100 to 1000 | < 10 |
| CCNc1cc2c(cn1)c(-c1cnn(C)c1)nn2[C@H]1CC[C@@H](Oc2nccc(C(F)(F)F)c2N(C)C)CC1 [Example 350, 1-((1s,4s)-4-((3-(dimethylamino)-4-(trifluoromethyl)pyridin-2-yl)oxy)cyclohexyl)-N-ethyl-3-(1-methyl-1H-pyrazol-4-yl)-1H-pyrazolo[4,3-c]pyridin-6-amine] | < 10 | 10 to 100 | < 10 |
| CCNc1cc2c(cn1)c([C@H]1CC[C@@H](N(C)C)CC1)nn2[C@H]1CC[C@@H](Oc2nccc(C(F)(F)F)c2F)CC1 [Example 351, 3-((1s,4S)-4-(dimethylamino)cyclohexyl)-N-ethyl-1-((1s,4S)-4-((3-fluoro-4-(trifluoromethyl)pyridin-2-yl)oxy)cyclohexyl)-1H-pyrazolo[4,3-c]pyridin-6-amine] | < 10 | < 10 | < 10 |

Other lines, results leading:

| IC50 [1] [nM] | IC50 [2] [nM] | IC50 [3] [nM] | Compound |
| --- | --- | --- | --- |
| < 10 | 10 to 100 | < 10 | CCNc1cc2c(cn1)c(C1CCNC1)nn2[C@H]1CC[C@@H](Oc2nccc(C(F)(F)F)c2F)CC1 (stereo partly drawn) [Example 320, N-ethyl-1-((1s,4s)-4-((3-fluoro-4-(trifluoromethyl)pyridin-2-yl)oxy)cyclohexyl)-3-(pyrrolidin-3-yl)-1H-pyrazolo[4,3-c]pyridin-6-amine] |
| < 10 | 10 to 100 | < 10 | CCNc1cc2c(cn1)c(C1CCCN(C)C1)nn2[C@H]1CC[C@@H](Oc2nccc(C(F)(F)F)c2F)CC1 (stereo partly drawn) [Example 324, N-ethyl-1-((1s,4s)-4-((3-fluoro-4-(trifluoromethyl)pyridin-2-yl)oxy)cyclohexyl)-3-(1-methylpiperidin-3-yl)-1H-pyrazolo[4,3-c]pyridin-6-amine] |
| < 10 | 10 to 100 | < 10 | CCNc1cc2c(cn1)c(C1CCN(C)C1)nn2[C@H]1CC[C@@H](Oc2nccc(C(F)(F)F)c2F)CC1 (stereo partly drawn) [Example 325, N-ethyl-1-((1s,4s)-4-((3-fluoro-4-(trifluoromethyl)pyridin-2-yl)oxy)cyclohexyl)-3-(1-methylpyrrolidin-3-yl)-1H-pyrazolo[4,3-c]pyridin-6-amine] |
| < 10 | 10 to 100 | < 10 | CCNc1cc2c(cn1)c(C1CCN(C(C)C)CC1)nn2[C@H]1CC[C@@H](Oc2nccc(C(F)(F)F)c2F)CC1 [Example 326, N-ethyl-1-((1s,4s)-4-((3-fluoro-4-(trifluoromethyl)pyridin-2-yl)oxy)cyclohexyl)-3-(1-isopropylpiperidin-4-yl)-1H-pyrazolo[4,3-c]pyridin-6-amine] |
| < 10 | 10 to 100 | < 10 | CCNc1cc2c(cn1)c(C1CCN(CCOC)CC1)nn2[C@H]1CC[C@@H](Oc2nccc(C(F)(F)F)c2F)CC1 [Example 327, N-ethyl-1-((1s,4s)-4-((3-fluoro-4-(trifluoromethyl)pyridin-2-yl)oxy)cyclohexyl)-3-(1-(2-methoxyethyl)piperidin-4-yl)-1H-pyrazolo[4,3-c]pyridin-6-amine] |
| < 10 | < 10 | < 10 | CCNc1cc2c(cn1)c(C1CCN(C3CCN(C)CC3)CC1)nn2[C@H]1CC[C@@H](Oc2nccc(C(F)(F)F)c2F)CC1 [Example 328, N-ethyl-1-((1s,4s)-4-((3-fluoro-4-(trifluoromethyl)pyridin-2-yl)oxy)cyclohexyl)-3-(1′-methyl-[1,4′-bipiperidin]-4-yl)-1H-pyrazolo[4,3-c]pyridin-6-amine] |
| < 10 | 10 to 100 | < 10 | CCNc1cc2c(cn1)c(C1CCN(C(=O)C(C)C)CC1)nn2[C@H]1CC[C@@H](Oc2nccc(C(F)(F)F)c2F)CC1 [Example 329, 1-(4-(6-(ethylamino)-1-((1s,4s)-4-((3-fluoro-4-(trifluoromethyl)pyridin-2-yl)oxy)cyclohexyl)-1H-pyrazolo[4,3-c]pyridin-3-yl)piperidin-1-yl)-2-methylpropan-1-one] |
